“Also recorded” adds a separate entry of the source. Where no end group is shown, it is not given here.

The test system of one data set is human osteoclasts. Briefly: Osteoassay: bone resorption by osteoclasts on Corning osteoassay plate. The class given is cell-based. The conditions noted are these: for resorptive activity on corning osteoassay surface: 150 μM (C5); for bone resorption by osteoclasts / osteoclast activity (percentage resorption): Corning osteoassay plate, 1 uM-150 uM, M-CSF and RANKL, day 12. The protocol:
(§1) Osteoclasts were generated in vitro by the modified method of Cody et al., 2011, using fresh human bone marrow aspirates. Briefly, bone marrow mononuclear cells (BMC) separated on a density gradient medium in SepMate tubes were resuspended in growth media (α-MEM with 10% FBS) and cultured for 3 days in T75 flask with 35 ng/mL M-CSF at 37° C. in a 5% CO2 incubator. For osteoclast differentiation experiments, 10^5 cells/well of BM monocytes-macrophage precursors seeded in a 24 well plate was treated with human M-CSF and RANKL, and media replenished with fresh cytokines every third day for two weeks.
10^5 BMCs per well in 24 well Corning osteoassay plate were treated with human M-CSF (10 ng/mL) and 10 ng/mL of human RANKL. Undifferentiated condition includes cells treated with M-CSF only. The treatment wells had both M-CSF and RANKL followed by addition of TRPV6 peptide antagonists SOR-C13 and SOR-C27 at concentrations range 1 μM-150 μM tested in triplicate wells, vehicle or PBS buffer in which the peptides are dissolved and the standard anti-resorbing agent, Zoledronate were included for the experiment. Replenishment with fresh media containing M-CSF, RANKL and SOR peptides in respective wells was carried out every third day. On day 12, cells in osteoplates were removed by incubating with 10% bleach for 10 minutes; wells were washed with distilled water three times and air-dried for 3-5 hrs. Osteoassay plate was scanned using ChemiDoc MP and area of resorption pits in each well was quantified using ImageJ 1.48v Software.
Experiments were done in triplicates for each condition and data presented as mean±SD. All statistical analyses were done using GraphPad Prism 6, one way ANOVA and Dunnett's multiple comparison test was used to determine significance between groups and P<0.05 is considered statistically significant.
The effect of C-terminal Soricidin peptides on osteoclast activity and bone resorption was examined using 24-well corning assay plates that have a 3D osteo surface that mimics in vivo bone for in vitro bone cell assays. The inorganic bone biomaterial surface in each well is capable of supporting the functional properties of osteogenic cells. Only osteoclasts, specialized cells expressing bone-resorbing enzymes such as TRAP, cathepsin K and collagenase, can resorb such an artificial osteosurface. Resorption of the osteosurface is evident from the resorption pits/trails made by the osteoclasts, and the extent of resorption was quantified. Furthermore, the percentage activity of TRAP, one of the enzymes involved in bone resorption, was determined in tandem with the resorption assay (FIG. 7c). The anti-resorptive potential of selective TRPV6 antagonist peptides, SOR-C13 and SOR-C27 at various concentrations was observed (FIGS. 7 and 8) was observed.

A further data set deals with U266 cells. Briefly: 48 hr peptide treatment, myeloma cell growth (U266). The class given is cell-based, human. The note with it: 1 uM-500 uM. The protocol: C1=1 uM, C2=10 uM, C3=50 uM, C4=100 uM, C5=150 uM, C6=250 uM, C7=400 uM, C8=500 uM.
(§2) The expression of TRPV6 protein was also observed in human myeloma cells by immunohistochemistry on myeloma bone sections (FIG. 1C) and in myeloma cell lines by western blotting (FIG. 9). Moreover, the growth inhibitory potential of SOR-C13 and SOR-C27 was determined using human myeloma cell lines U266 and KMM-1 (FIGS. 10 and 11). There exists a reciprocal relationship between myeloma cells and osteoclasts in the bone marrow milieu where myeloma cells secrete many factors that promote osteoclast activity, and in turn osteoclasts induce myeloma cell growth and survival.

The test system of data set [1] is osteoclast differentiation. Briefly: Osteoclast differentiation from bone marrow mononuclear cells (M-CSF and RANKL). The class given is cell-based, human. The note with it: 150 μM (C5). The protocol:
as §1
(§3) 10^5 BMCs per well in 24 well Corning osteoassay plate were treated with human M-CSF (10 ng/mL) and 10 ng/mL of human RANKL. […] Osteoassay plate was scanned using ChemiDoc MP and area of resorption pits in each well was quantified using ImageJ 1.48v Software.
The effect of C-terminal Soricidin peptides on osteoclast activity and bone resorption was examined using 24-well corning assay plates that have a 3D osteo surface that mimics in vivo bone for in vitro bone cell assays. […] Resorption of the osteosurface is evident from the resorption pits/trails made by the osteoclasts, and the extent of resorption was quantified. Furthermore, the percentage activity of TRAP, one of the enzymes involved in bone resorption, was determined in tandem with the resorption assay (FIG. 7c). […]

The subject of the next data set is KMM-1 cells. Briefly: 48 hr peptide treatment, myeloma cell growth (KMM-1). The class given is cell-based, human. The conditions noted are these: 1 uM-500 uM. How it is done: C1=1 uM, C2=10 uM, C3=50 uM, C4=100 uM, C5=150 uM, C6=250 uM, C7=300 uM, C8=400 uM, C9=500 uM.
as §2

Data set [2] has as its system Tartrate-Resistant Acid Phosphatase (TRAP) in osteoclasts. Briefly: TRAP enzyme activity in conditioned media of osteoassay wells. The class given is cell-based, human. The conditions noted are these: relative to controls. How it is done:
Osteoclasts were fixed and stained for tartrate-resistant acid phosphatase (TRAP) using the leukocyte acid phosphatase kit (Sigma-Aldrich) according to the manufacturer's protocol. Images were acquired in EVOS brightfield microscope. To visualize actin ring formation in osteoclasts, tetramethyl rhodamine-phalloidin (Life Technologies Inc.) staining was done for 1 hour. The cell nuclei were counterstained with 1 μg/ml Hoechst 33342 (Sigma-Aldrich) in phosphate buffered saline for 5 minute. Images were acquired in EVOS fluorescence microscope. TRAP enzyme activity was measured at 37° C. with a substrate buffer (125 mg/ml Naphthol AS-BI phosphoric acid in diazotized fast garnet base chemical solution, Sigma-Aldrich) at 560 nm.
as §3
The effect of C-terminal Soricidin peptides on osteoclast activity and bone resorption was examined using 24-well corning assay plates that have a 3D osteo surface that mimics in vivo bone for in vitro bone cell assays. […] Resorption of the osteosurface is evident from the resorption pits/trails made by the osteoclasts, and the extent of resorption was quantified. […]

Data set [3] has as its system two ovarian cancer cell lines. The conditions noted are these: cited from earlier work.
The conditions of data set [4]: in vivo; cited from earlier work.

In the case of “EGKLSSNDTEGGLCKEFLHPSKVDLPR [SOR-C27, peptide corresponding to the C-terminal end of soricidin; TRPV6 peptide antagonist]”, in the data set on human osteoclasts, the “resorptive activity on corning osteoassay surface” value is listed as “significantly reduced their resorptive activity” and the “bone resorption by osteoclasts / osteoclast activity (percentage resorption)” value was “dose-dependent Inhibition of osteoclast activity; also recorded: dose-dependent decrease in bone resorption”. For the same substance, the cell growth entry in the data set with U266 cells is “dose-dependent inhibition of cell growth”. In addition, the “osteoclast differentiation in vitro” value in data set [1] was “inhibited osteoclast differentiation”. In the data set with KMM-1 cells, the cell growth result was “dose-dependent inhibition of cell growth”. For the same substance, the TRAP enzyme activity entry in data set [2] is reported as “decrease in TRAP enzyme activity relative to controls”.

Consider KEFLHPSKVDLPR [SOR-C13, KEFLHPSKVDLPR], for which, in the data set on human osteoclasts, the “resorptive activity on corning osteoassay surface” value is “significantly reduced their resorptive activity” and the “bone resorption by osteoclasts / osteoclast activity (percentage resorption)” value was “inhibition of osteoclast activity; also recorded: dose-dependent decrease in bone resorption”. Also, the cell growth entry with U266 cells is “dose-dependent inhibition of cell growth”. For the same substance, the “osteoclast differentiation in vitro” value in data set [1] was “inhibited osteoclast differentiation”. In the data set on KMM-1 cells, the cell growth result is “dose-dependent inhibition of cell growth”. The TRAP enzyme activity result in data set [2] is “decrease in TRAP enzyme activity relative to controls”.

For the substance “Soricidin: fifty-four amino acid paralytic peptide isolated from the submaxilary saliva gland of the Northern Short-tailed Shrew (Blarina brevicauda) (DCSQDCAACSILARPAELNTETCILECEGKLSSNDTEGGLCKEFLHPSKVDLPR; UniProt P0C2P6 1-54, looked up)”, in data set [3], the calcium uptake entry is “inhibited calcium uptake”. Besides, the paralysis result in data set [4] is “caused paralysis”.

The values are drawn from US11884709B2, “Peptides for the treatment of resorptive bone disease” (University of New Brunswick, priority 2015, dated 2024).
